One test has as its system Normal blood macrophages. As to conditions: 150uM, three days, three donors.
The test system of test [1] is ALS blood monocytes. The note with it: 300uM, 3 days, FIG. 4.
Description: Culture supernatants were harvested and cytokine levels were determined by ELISA. […] Referring to the Y-axis, percentage of reduction is the level of factor in treated as compared to untreated macrophages. N is 8-18 in several experiments.
Test [2] deals with Blood derived macrophages from ALS patients. The note with it: 300uM overnight, two ALS patients, FIG. 3. The text has this:
The maj or focus was on regulation of inflammation as compared to normal macrophage functional genes. […] Note that by “housekeeping genes” is meant B2M, HPRT1, RPL13A, GAPDH, and ACTB.

Test [3] has as its system ALS blood monocytes. The note with it: 3 days. The protocol: Culture supernatants are harvested and osteopontin levels (OPN) are determined by ELISA.
Repeated with 3 normal and 5 ALS donors.

Test [4] concerns blood derived macrophages (CD16 on CD14 cells). As to conditions: +30 µM, +100 µM, +300 µM, three days, 5 donors, FIG. 2. How it is done:
Cells were then processed for flow cytometry (5 separate donors) and CD14 cell co-expression of CD16 (macrophage activation marker) was scored.
Percentage of control median CD16 was calculated for all 5 donors +/- SD.

“And” between values parts separate entries of the source, which are not always exact repeats. Identical values can stand only once.

This is an account of results in patent publication US20230256011A1, “Chlorite In the Treatment of Acute Respiratory Distress Syndrome” (The Regents of the University of California, priority 2020, published 2023).

As for “sodium chlorite [sodium chlorite formulation]”, in the test with Normal blood macrophages, the “CCR3 gene down regulated” value was determined as 3 X, the “CXCL9 gene down regulated” value is 14 X and the SERPINB2 gene upregulated is recorded as 4 X. The “production of secreted inflammatory factors (IL-1Ra, CD163, CD14, OPN)” value with ALS blood monocytes [1] was “inhibits production”. In addition, in test [2], the CCL16 gene expression entry is recorded as “clear down regulation”, the CCR2 gene expression result was “clear down regulation”, the CXCL9 gene expression result is reported as “clear down regulation” and the CXCL10 gene expression result is “clear down regulation”. Further, in test [2], the “IL-18 gene expression (inflammasome activation)” value is reported as “clear down regulation” and the TLR4 gene expression entry is “clear down regulation”. The “production of OPN from ALS patient macrophages (ELISA)” value in the test with ALS blood monocytes [3] (150uM, FIG. 6 panel A) is “inhibit production of OPN”. Besides, in the test with ALS blood monocytes [3] (dose response, FIG. 6 panel B), the “SPP1 (osteopontin) gene expression” value is reported as “inhibits SPP1 (osteopontin) gene expression in a dose-dependent manner”. Besides, in the test with COVID19 blood monocytes, the “Chlorite % Reduction of factor in vitro, MIG” value is 88% and 70%; the “Chlorite % reduction of factor in vitro, IP10” value is 95% and 80%; the “down regulation of HGF” value is listed as “greater than 50%”; the “down regulation of IL1Ra” value is recorded as “greater than 50%”. Moreover, in the test on COVID19 blood monocytes, the “down regulation of IP10 (CXCL10)” value is given as “greater than 50%”, the “down regulation of MIG (CXCL9)” value was “greater than 50%”, the “down regulation of OPN” value is recorded as “greater than 50%” and the “down regulation of sCD163 (CD163)” value was “greater than 50%”. Besides, the “production of COVID-19 patient macrophage produced disease factors (IL-1Ra, IP-10, HGF, MIG, sCD163, OPN) as compared to controls” value in the test with COVID19 blood monocytes is “downregulated production”. Also, the “CD16 expression on CD14+ (monocyte lineage) cells” value in test [4] is “dose dependent down regulation of CD16”.
